Reference: ChEMBL document CHEMBL3817807, “Sequence-specific DNA binding by long hairpin pyrrole-imidazole polyamides containing an 8-amino-3,6-dioxaoctanoic acid unit” (Bioorg Med Chem, 2016)
The source made the active and inactive calls.

Legend:
[1] = Binding affinity to AGGCTTACA oligonucleotide DNA sequence (unknown origin) at 50 nM incubated for 16 hrs by PCR based Bind-n-Seq analysis
[2] = Binding affinity to AGGCTGATA oligonucleotide DNA sequence (unknown origin) at 50 nM incubated for 16 hrs by PCR based Bind-n-Seq analysis
[3] = Binding affinity to AGGCAGACA oligonucleotide DNA sequence (unknown origin) at 50 nM incubated for 16 hrs by PCR based Bind-n-Seq analysis
[4] = Binding affinity to TGGCTAACA oligonucleotide DNA sequence (unknown origin) at 50 nM incubated for 16 hrs by PCR based Bind-n-Seq analysis
[5] = Binding affinity to AGACAGTCA oligonucleotide DNA sequence (unknown origin) at 50 nM incubated for 16 hrs by PCR based Bind-n-Seq analysis
[6] = Binding affinity to CGGCTAACA oligonucleotide DNA sequence (unknown origin) at 50 nM incubated for 16 hrs by PCR based Bind-n-Seq analysis
[7] = Binding affinity to AGACTGACA oligonucleotide DNA sequence (unknown origin) at 50 nM incubated for 16 hrs by PCR based Bind-n-Seq analysis
[8] = Binding affinity to ATGCAGACA oligonucleotide DNA sequence (unknown origin) at 50 nM incubated for 16 hrs by PCR based Bind-n-Seq analysis
[9] = Binding affinity to ATGCAGTCA oligonucleotide DNA sequence (unknown origin) at 50 nM incubated for 16 hrs by PCR based Bind-n-Seq analysis
[10] = Binding affinity to TGGTAGACA oligonucleotide DNA sequence (unknown origin) at 50 nM incubated for 16 hrs by PCR based Bind-n-Seq analysis
[11] = Binding affinity to TGTCAGCGA oligonucleotide DNA sequence (unknown origin) at 50 nM incubated for 16 hrs by PCR based Bind-n-Seq analysis
[12] = Binding affinity to TGGCAGACT oligonucleotide DNA sequence (unknown origin) at 50 nM incubated for 16 hrs by PCR based Bind-n-Seq analysis
[13] = Binding affinity to TGGCAGACA oligonucleotide DNA sequence (unknown origin) at 50 nM incubated for 16 hrs by PCR based Bind-n-Seq analysis
[14] = Binding affinity to AGTCAGCCT oligonucleotide DNA sequence (unknown origin) at 50 nM incubated for 16 hrs by PCR based Bind-n-Seq analysis
[15] = Binding affinity to GTGTCAGCC oligonucleotide DNA sequence (unknown origin) at 50 nM incubated for 16 hrs by PCR based Bind-n-Seq analysis
[16] = Binding affinity to TGTCAGCCT oligonucleotide DNA sequence (unknown origin) at 50 nM incubated for 16 hrs by PCR based Bind-n-Seq analysis
[17] = Binding affinity to ATGTCTGCC oligonucleotide DNA sequence (unknown origin) at 50 nM incubated for 16 hrs by PCR based Bind-n-Seq analysis
[18] = Binding affinity to GGTTGACAT oligonucleotide DNA sequence (unknown origin) at 50 nM incubated for 16 hrs by PCR based Bind-n-Seq analysis
[19] = Binding affinity to TAGTCAGCC oligonucleotide DNA sequence (unknown origin) at 50 nM incubated for 16 hrs by PCR based Bind-n-Seq analysis
[20] = Binding affinity to GGCTGACTG oligonucleotide DNA sequence (unknown origin) at 50 nM incubated for 16 hrs by PCR based Bind-n-Seq analysis
[21] = Binding affinity to AAAGGCCGA oligonucleotide DNA sequence (unknown origin) at 50 nM incubated for 16 hrs by PCR based Bind-n-Seq analysis
[22] = Binding affinity to GGGCAGAAA oligonucleotide DNA sequence (unknown origin) at 50 nM incubated for 16 hrs by PCR based Bind-n-Seq analysis
[23] = Binding affinity to ATCGGCAAA oligonucleotide DNA sequence (unknown origin) at 50 nM incubated for 16 hrs by PCR based Bind-n-Seq analysis
[24] = Binding affinity to AAAGGAATC oligonucleotide DNA sequence (unknown origin) at 50 nM incubated for 16 hrs by PCR based Bind-n-Seq analysis
[25] = Binding affinity to AGGCGAAAT oligonucleotide DNA sequence (unknown origin) at 50 nM incubated for 16 hrs by PCR based Bind-n-Seq analysis
[26] = Binding affinity to TATGGCTCA oligonucleotide DNA sequence (unknown origin) at 50 nM incubated for 16 hrs by PCR based Bind-n-Seq analysis
[27] = Binding affinity to AAAGGGTAA oligonucleotide DNA sequence (unknown origin) at 50 nM incubated for 16 hrs by PCR based Bind-n-Seq analysis
[28] = Binding affinity to AAAGAAGGC oligonucleotide DNA sequence (unknown origin) at 50 nM incubated for 16 hrs by PCR based Bind-n-Seq analysis
[29] = Binding affinity to CCTTTCGGC oligonucleotide DNA sequence (unknown origin) at 50 nM incubated for 16 hrs by PCR based Bind-n-Seq analysis
[30] = Binding affinity to AGAAAGGCG oligonucleotide DNA sequence (unknown origin) at 50 nM incubated for 16 hrs by PCR based Bind-n-Seq analysis

Measured: Activity

CC(=O)Nc1cn(C)c(C(=O)Nc2cn(C)c(C(=O)Nc3cc(C(=O)NCCC(=O)Nc4cn(C)c(C(=O)Nc5cc(C(=O)Nc6cc(C(=O)NCCCC(=O)Nc7cn(C)c(C(=O)Nc8cc(C(=O)Nc9cc(C(=O)NCCC(=O)Nc%10cn(C)c(C(=O)Nc%11cc(C(=O)Nc%12cc(C(=O)NCCC(=O)NCCCN(C)CCCNC(=O)CCOCCOCCOCCOCCOCCOCCOCCOCCOCCOCCOCCOCCNC(=O)CCCC[C@@H]%13SC[C@@H]%14NC(=O)N[C@@H]%14%13)n(C)c%12)n(C)c%11)n%10)n(C)c9)n(C)c8)n7)n(C)c6)n(C)c5)n4)n(C)c3)n2)n1
active: [1] | [2] | [3] | [4] | [5] | [6] | [7] | [8] | [9] | [10]

CC(=O)Nc1cn(C)c(C(=O)Nc2cn(C)c(C(=O)NCCOCCOCC(=O)Nc3cn(C)c(C(=O)Nc4cc(C(=O)Nc5cc(C(=O)NCCCC(=O)Nc6cn(C)c(C(=O)Nc7cc(C(=O)Nc8cc(C(=O)NCCC(=O)Nc9cn(C)c(C(=O)Nc%10cc(C(=O)Nc%11cc(C(=O)NCCC(=O)NCCCN(C)CCCNC(=O)CCOCCOCCOCCOCCOCCOCCOCCOCCOCCOCCOCCOCCNC(=O)CCCC[C@@H]%12SC[C@@H]%13NC(=O)N[C@@H]%13%12)n(C)c%11)n(C)c%10)n9)n(C)c8)n(C)c7)n6)n(C)c5)n(C)c4)n3)n2)n1
active: [11] | [12] | [13] | [14] | [15] | [16] | [17] | [18] | [19] | [20]

CC(=O)Nc1cn(C)c(C(=O)Nc2cn(C)c(C(=O)Nc3cc(C(=O)NCCC(=O)Nc4cn(C)c(C(=O)Nc5cc(C(=O)Nc6cc(C(=O)NCCCC(=O)Nc7cn(C)c(C(=O)Nc8cc(C(=O)NCCOCCOCC(=O)Nc9cn(C)c(C(=O)Nc%10cc(C(=O)Nc%11cc(C(=O)NCCC(=O)NCCCN(C)CCCNC(=O)CCOCCOCCOCCOCCOCCOCCOCCOCCOCCOCCOCCOCCNC(=O)CCCC[C@@H]%12SC[C@@H]%13NC(=O)N[C@@H]%13%12)n(C)c%11)n(C)c%10)n9)n(C)c8)n7)n(C)c6)n(C)c5)n4)n(C)c3)n2)n1
active: [21] | [22] | [23] | [24] | [25] | [26] | [27] | [28] | [29] | [30]
